Test: Examination of solubility of compounds in toluene
Conditions: in toluene at room temperature

Solubility | SMILES
≧10%^ | CCCCCCCCCCCCNc1ccc2c3c(cc(=O)n2CCCC)-c2ccccc2C(=O)c13 [Compound (8)]
≧10%^ | CCCCn1c(=O)cc2c3c(c(NCCC4=CCCCC4)ccc31)C(=O)c1ccccc1-2 [Compound (9)]
≧10%^ | CCCCC(CC)CNc1ccc2c3c(cc(=O)n2CC(CC)CCCC)-c2ccccc2C(=O)c13 (stereo not drawn) [Compound (5)]

More lines, now with the values behind:

SMILES | Solubility
CCCCC(CC)CNc1ccc2c3c(cc(=O)n2C)-c2ccccc2C(=O)c13 (stereo not drawn) [Compound (1)] | 5%
Cc1cccc(Nc2ccc3c4c(cc(=O)n3C)-c3ccccc3C(=O)c24)c1 [(3)] | ≦1%
Cn1c(=O)cc2c3c(c(Nc4ccccc4)ccc31)C(=O)c1ccccc1-2 [(1)] | ≦1%
Cc1ccc(Nc2ccc3c4c(cc(=O)n3C)-c3ccccc3C(=O)c24)cc1 [(2)] | ≦1%
Cc1ccc(Nc2ccc3c4c(cc(=O)n3-c3ccc(C)cc3)-c3ccccc3C(=O)c24)cc1 [(4)] | ≦1%
O=C1c2ccccc2-c2cc(=O)n(C3CCCCC3)c3ccc(NC4CCCCC4)c1c23 [(5)] | ≦0.1% ^
